According to patent publication US6706740B2, “Fungicidal heterocyclic aromatic amides and their compositions, methods of use and preparation” (Dow AgroSciences LLC, priority 1999, dated 2004):

Test system: Magnaporthe grisea (Pyricularia oryzae—PYRIOR)
Assay: microbe, parasite or virus in culture
Type: cell-based
Conditions: Pyricularia oryzae, read-out: PYRIOR in vitro Growth Inhibition

Structure (SMILES)	inhibition at 25 ppm [%]
COc1ccnc(C(=O)Nc2ccc(C(=O)Oc3ccc(C(F)(F)F)cc3)cc2)c1OC(C)=O [Compound 717]	< 80
CC(C)C(=O)O[C@H]1[C@H](C)OC(=O)[C@@H](NC(=O)c2cncnc2O)COC(=O)[C@@H]1Cc1ccccc1 [Compound 540]	< 80
O=C(NCC1CCCc2ccccc21)c1nc(Br)ccc1O (stereo not drawn) [Compound 485]	< 80
COc1ccnc(C(=O)NC2CC3OC2C(C)C(OC(=O)C(C)C)C3C)c1O (stereo not drawn) [Compound 320]	< 80

Test system: Rhizoctonia solani (RHIZSO)
Assay: microbe, parasite or virus in culture
Type: cell-based
Conditions: Rhizoctonia solani, read-out: RHIZSO in vitro Growth Inhibition

Structure (SMILES)	inhibition at 25 ppm [%]
COc1ccnc(C(=O)Nc2ccc(C(=O)Oc3ccc(C(F)(F)F)cc3)cc2)c1OC(C)=O [Compound 717]	< 80
CC(C)C(=O)O[C@H]1[C@H](C)OC(=O)[C@@H](NC(=O)c2cncnc2O)COC(=O)[C@@H]1Cc1ccccc1 [Compound 540]	< 80
O=C(NCC1CCCc2ccccc21)c1nc(Br)ccc1O (stereo not drawn) [Compound 485]	< 80
COc1ccnc(C(=O)NC2CC3OC2C(C)C(OC(=O)C(C)C)C3C)c1O (stereo not drawn) [Compound 320]	< 80

Test system: Mycosphaerella graminicola (Septoria tritici—SEPTTR)
Assay: In vitro fungal growth inhibition, Mycosphaerella graminicola (SEPTTR)
Type: cell-based
Conditions: Zymoseptoria tritici; 25 ppm in growth medium; read-out: SEPTTR in vitro Growth Inhibition

Structure (SMILES)	inhibition at 25 ppm [%]
COc1ccnc(C(=O)Nc2ccc(C(=O)Oc3ccc(C(F)(F)F)cc3)cc2)c1OC(C)=O [Compound 717]	< 80
COc1ccnc(C(=O)NC2CC3OC2C(C)C(OC(=O)C(C)C)C3C)c1O (stereo not drawn) [Compound 320]	< 80

Same assay, conditions: Zymoseptoria tritici; 25 ppm in the growth medium; read-out: SEPTTR in vitro Growth Inhibition

Structure (SMILES)	inhibition at 25 ppm [%]
CC(C)C(=O)O[C@H]1[C@H](C)OC(=O)[C@@H](NC(=O)c2cncnc2O)COC(=O)[C@@H]1Cc1ccccc1 [Compound 540]	< 80
O=C(NCC1CCCc2ccccc21)c1nc(Br)ccc1O (stereo not drawn) [Compound 485]	< 80

Test system: Stagonospora nodorum (Leptosphaeria nodorum—LEPTNO)
Assay: In vitro fungal growth inhibition, Stagonospora nodorum (LEPTNO)
Type: cell-based
Conditions: Leptosphaeria; 25 ppm in growth medium; read-out: LEPTNO in vitro Growth Inhibition

Structure (SMILES)	inhibition at 25 ppm [%]
COc1ccnc(C(=O)Nc2ccc(C(=O)Oc3ccc(C(F)(F)F)cc3)cc2)c1OC(C)=O [Compound 717]	< 80
COc1ccnc(C(=O)NC2CC3OC2C(C)C(OC(=O)C(C)C)C3C)c1O (stereo not drawn) [Compound 320]	< 80

Same assay, conditions: Leptosphaeria; 25 ppm in the growth medium; read-out: LEPTNO in vitro Growth Inhibition

Structure (SMILES)	inhibition at 25 ppm [%]
CC(C)C(=O)O[C@H]1[C@H](C)OC(=O)[C@@H](NC(=O)c2cncnc2O)COC(=O)[C@@H]1Cc1ccccc1 [Compound 540]	< 80
O=C(NCC1CCCc2ccccc21)c1nc(Br)ccc1O (stereo not drawn) [Compound 485]	< 80

Test system: Ustilago maydis (USTIMA)
Assay: microbe, parasite or virus in culture
Type: cell-based
Conditions: Mycosarcoma maydis, read-out: USTIMA in vitro Growth Inhibition

Structure (SMILES)	inhibition at 25 ppm [%]
COc1ccnc(C(=O)Nc2ccc(C(=O)Oc3ccc(C(F)(F)F)cc3)cc2)c1OC(C)=O [Compound 717]	< 80
CC(C)C(=O)O[C@H]1[C@H](C)OC(=O)[C@@H](NC(=O)c2cncnc2O)COC(=O)[C@@H]1Cc1ccccc1 [Compound 540]	< 80
O=C(NCC1CCCc2ccccc21)c1nc(Br)ccc1O (stereo not drawn) [Compound 485]	< 80
COc1ccnc(C(=O)NC2CC3OC2C(C)C(OC(=O)C(C)C)C3C)c1O (stereo not drawn) [Compound 320]	< 80

Test system: Phytophthora infestans (PHYTIN)
Assay: microbe, parasite or virus in culture
Type: cell-based
Conditions: Phytophthora infestans, read-out: PHYTIN in vitro Growth Inhibition

Structure (SMILES)	inhibition at 25 ppm [%]
COc1ccnc(C(=O)Nc2ccc(C(=O)Oc3ccc(C(F)(F)F)cc3)cc2)c1OC(C)=O [Compound 717]	< 80
CC(C)C(=O)O[C@H]1[C@H](C)OC(=O)[C@@H](NC(=O)c2cncnc2O)COC(=O)[C@@H]1Cc1ccccc1 [Compound 540]	< 80
O=C(NCC1CCCc2ccccc21)c1nc(Br)ccc1O (stereo not drawn) [Compound 485]	< 80
COc1ccnc(C(=O)NC2CC3OC2C(C)C(OC(=O)C(C)C)C3C)c1O (stereo not drawn) [Compound 320]	< 80

Test system: Phytophthora infestans—PHYTIN
Assay: whole plant or invertebrate
Type: in vivo
Conditions: Phytophthora, in Solanum lycopersicum, 24 h, read-out: PHYTIN in vivo 1 Day Protectant

Structure (SMILES)	pest or weed control at 100 ppm [%]
COc1ccnc(C(=O)Nc2ccc(C(=O)Oc3ccc(C(F)(F)F)cc3)cc2)c1OC(C)=O [Compound 717]	< 25
CC(C)C(=O)O[C@H]1[C@H](C)OC(=O)[C@@H](NC(=O)c2cncnc2O)COC(=O)[C@@H]1Cc1ccccc1 [Compound 540]	< 25
O=C(NCC1CCCc2ccccc21)c1nc(Br)ccc1O (stereo not drawn) [Compound 485]	< 25
COc1ccnc(C(=O)NC2CC3OC2C(C)C(OC(=O)C(C)C)C3C)c1O (stereo not drawn) [Compound 320]	< 25

Test system: Puccinia recondita—PUCCRT
Assay: Brown Rust of Wheat, in vivo whole plant, 24 Hour Protectant
Conditions: Puccinia; 100 ppm spray, 24 hour protectant, wheat; control of fungal infection vs untreated plants; read-out: PUCCRT in vivo 1 Day Protectant

Structure (SMILES)	pest or weed control at 100 ppm [%]
COc1ccnc(C(=O)NC2CC3OC2C(C)C(OC(=O)C(C)C)C3C)c1O (stereo not drawn) [Compound 320]	< 25

Same assay, conditions: Puccinia; 100 ppm spray, wheat, 24 hour protectant, % control of fungal infection vs untreated plants; read-out: PUCCRT in vivo 1 Day Protectant

Structure (SMILES)	pest or weed control at 100 ppm [%]
COc1ccnc(C(=O)Nc2ccc(C(=O)Oc3ccc(C(F)(F)F)cc3)cc2)c1OC(C)=O [Compound 717]	< 25

Same assay, conditions: Puccinia; wheat plants sprayed at 100 ppm, inoculated after 24 hours; control of fungal infection vs untreated plants; read-out: PUCCRT in vivo 1 Day Protectant

Structure (SMILES)	pest or weed control at 100 ppm [%]
CC(C)C(=O)O[C@H]1[C@H](C)OC(=O)[C@@H](NC(=O)c2cncnc2O)COC(=O)[C@@H]1Cc1ccccc1 [Compound 540]	< 25
O=C(NCC1CCCc2ccccc21)c1nc(Br)ccc1O (stereo not drawn) [Compound 485]	< 25

Test system: Erysiphe graminis—ERYSGT
Assay: Powdery Mildew of Wheat, in vivo whole plant, 24 Hour Protectant
Conditions: Erysiphe; 100 ppm spray, 24 hour protectant, wheat; control of fungal infection vs untreated plants; read-out: ERYSGT in vivo 1 Day Protectant

Structure (SMILES)	pest or weed control at 100 ppm [%]
COc1ccnc(C(=O)NC2CC3OC2C(C)C(OC(=O)C(C)C)C3C)c1O (stereo not drawn) [Compound 320]	< 25

Same assay, conditions: Erysiphe; 100 ppm spray, wheat, 24 hour protectant, % control of fungal infection vs untreated plants; read-out: ERYSGT in vivo 1 Day Protectant

Structure (SMILES)	pest or weed control at 100 ppm [%]
COc1ccnc(C(=O)Nc2ccc(C(=O)Oc3ccc(C(F)(F)F)cc3)cc2)c1OC(C)=O [Compound 717]	< 25

Same assay, conditions: Erysiphe; wheat plants sprayed at 100 ppm, inoculated after 24 hours; control of fungal infection vs untreated plants; read-out: ERYSGT in vivo 1 Day Protectant

Structure (SMILES)	pest or weed control at 100 ppm [%]
CC(C)C(=O)O[C@H]1[C@H](C)OC(=O)[C@@H](NC(=O)c2cncnc2O)COC(=O)[C@@H]1Cc1ccccc1 [Compound 540]	< 25
O=C(NCC1CCCc2ccccc21)c1nc(Br)ccc1O (stereo not drawn) [Compound 485]	< 25

Test system: Septoria tritici—SEPTTR
Assay: Leaf Blotch of Wheat, in vivo whole plant, 24 Hour Protectant
Conditions: Zymoseptoria tritici, 24 h, 100 ppm spray, 24 hour protectant, wheat; control of fungal infection vs untreated plants; read-out: SEPTTR in vivo 1 Day Protectant

Structure (SMILES)	pest or weed control at 100 ppm [%]
COc1ccnc(C(=O)NC2CC3OC2C(C)C(OC(=O)C(C)C)C3C)c1O (stereo not drawn) [Compound 320]	25 to 74

Same assay, conditions: Zymoseptoria tritici, 24 h, 100 ppm spray, wheat, 24 hour protectant, % control of fungal infection vs untreated plants; read-out: SEPTTR in vivo 1 Day Protectant

Structure (SMILES)	pest or weed control at 100 ppm [%]
COc1ccnc(C(=O)Nc2ccc(C(=O)Oc3ccc(C(F)(F)F)cc3)cc2)c1OC(C)=O [Compound 717]	25 to 74

Same assay, conditions: Zymoseptoria tritici, 24 h, wheat plants sprayed at 100 ppm, inoculated after 24 hours; control of fungal infection vs untreated plants; read-out: SEPTTR in vivo 1 Day Protectant

Structure (SMILES)	pest or weed control at 100 ppm [%]
CC(C)C(=O)O[C@H]1[C@H](C)OC(=O)[C@@H](NC(=O)c2cncnc2O)COC(=O)[C@@H]1Cc1ccccc1 [Compound 540]	25 to 74
O=C(NCC1CCCc2ccccc21)c1nc(Br)ccc1O (stereo not drawn) [Compound 485]	< 25

Test system: Leptosphaeria nodorum—LEPTNO
Assay: Glume Blotch of Wheat, in vivo whole plant, 24 Hour Protectant
Conditions: Leptosphaeria; 100 ppm spray, 24 hour protectant, wheat; control of fungal infection vs untreated plants; read-out: LEPTNO in vivo 1 Day Protectant

Structure (SMILES)	pest or weed control at 100 ppm [%]
COc1ccnc(C(=O)NC2CC3OC2C(C)C(OC(=O)C(C)C)C3C)c1O (stereo not drawn) [Compound 320]	25 to 74

Same assay, conditions: Leptosphaeria; 100 ppm spray, wheat, 24 hour protectant, % control of fungal infection vs untreated plants; read-out: LEPTNO in vivo 1 Day Protectant

Structure (SMILES)	pest or weed control at 100 ppm [%]
COc1ccnc(C(=O)Nc2ccc(C(=O)Oc3ccc(C(F)(F)F)cc3)cc2)c1OC(C)=O [Compound 717]	25 to 74

Same assay, conditions: Leptosphaeria; wheat plants sprayed at 100 ppm, inoculated after 24 hours; control of fungal infection vs untreated plants; read-out: LEPTNO in vivo 1 Day Protectant

Structure (SMILES)	pest or weed control at 100 ppm [%]
CC(C)C(=O)O[C@H]1[C@H](C)OC(=O)[C@@H](NC(=O)c2cncnc2O)COC(=O)[C@@H]1Cc1ccccc1 [Compound 540]	< 25
O=C(NCC1CCCc2ccccc21)c1nc(Br)ccc1O (stereo not drawn) [Compound 485]	< 25

Test system: not given
Assay: not given
Conditions: not given

Structure (SMILES)	melting point
COc1ccnc(C(=O)Nc2ccc(C(=O)Oc3ccc(C(F)(F)F)cc3)cc2)c1OC(C)=O [Compound 717]	203 to 205 °C
CC(C)C(=O)O[C@H]1[C@H](C)OC(=O)[C@@H](NC(=O)c2cncnc2O)COC(=O)[C@@H]1Cc1ccccc1 [Compound 540]	195 °C (dec.)
O=C(NCC1CCCc2ccccc21)c1nc(Br)ccc1O (stereo not drawn) [Compound 485]	140 to 142 °C
COc1ccnc(C(=O)NC2CC3OC2C(C)C(OC(=O)C(C)C)C3C)c1O (stereo not drawn) [Compound 320]	108.5 to 109.5 °C
